Laboratory results from ChEMBL document CHEMBL1137784, “L337H mutant of rat neuronal nitric oxide synthase resembles human neuronal nitric oxide synthase toward inhibitors” (J Med Chem, 2009).

Legend:
[1] = Selectivity ratio of IC50 for wild type rat nNOS to IC50 for human nNOS by hemoglobin capture assay
Nitric oxide synthase 1 [2] = molecular target: Nitric oxide synthase 1 (Rattus norvegicus, UniProt P29476, L337H)
Nitric oxide synthase 1 [3] = molecular target: Nitric oxide synthase 1 (Rattus norvegicus, UniProt P29476); experiment: Inhibition of wild type rat nNOS by hemoglobin capture assay
Nitric oxide synthase 1 (Rattus norvegicus, UniProt P29476), sequence (P29476 whole entry): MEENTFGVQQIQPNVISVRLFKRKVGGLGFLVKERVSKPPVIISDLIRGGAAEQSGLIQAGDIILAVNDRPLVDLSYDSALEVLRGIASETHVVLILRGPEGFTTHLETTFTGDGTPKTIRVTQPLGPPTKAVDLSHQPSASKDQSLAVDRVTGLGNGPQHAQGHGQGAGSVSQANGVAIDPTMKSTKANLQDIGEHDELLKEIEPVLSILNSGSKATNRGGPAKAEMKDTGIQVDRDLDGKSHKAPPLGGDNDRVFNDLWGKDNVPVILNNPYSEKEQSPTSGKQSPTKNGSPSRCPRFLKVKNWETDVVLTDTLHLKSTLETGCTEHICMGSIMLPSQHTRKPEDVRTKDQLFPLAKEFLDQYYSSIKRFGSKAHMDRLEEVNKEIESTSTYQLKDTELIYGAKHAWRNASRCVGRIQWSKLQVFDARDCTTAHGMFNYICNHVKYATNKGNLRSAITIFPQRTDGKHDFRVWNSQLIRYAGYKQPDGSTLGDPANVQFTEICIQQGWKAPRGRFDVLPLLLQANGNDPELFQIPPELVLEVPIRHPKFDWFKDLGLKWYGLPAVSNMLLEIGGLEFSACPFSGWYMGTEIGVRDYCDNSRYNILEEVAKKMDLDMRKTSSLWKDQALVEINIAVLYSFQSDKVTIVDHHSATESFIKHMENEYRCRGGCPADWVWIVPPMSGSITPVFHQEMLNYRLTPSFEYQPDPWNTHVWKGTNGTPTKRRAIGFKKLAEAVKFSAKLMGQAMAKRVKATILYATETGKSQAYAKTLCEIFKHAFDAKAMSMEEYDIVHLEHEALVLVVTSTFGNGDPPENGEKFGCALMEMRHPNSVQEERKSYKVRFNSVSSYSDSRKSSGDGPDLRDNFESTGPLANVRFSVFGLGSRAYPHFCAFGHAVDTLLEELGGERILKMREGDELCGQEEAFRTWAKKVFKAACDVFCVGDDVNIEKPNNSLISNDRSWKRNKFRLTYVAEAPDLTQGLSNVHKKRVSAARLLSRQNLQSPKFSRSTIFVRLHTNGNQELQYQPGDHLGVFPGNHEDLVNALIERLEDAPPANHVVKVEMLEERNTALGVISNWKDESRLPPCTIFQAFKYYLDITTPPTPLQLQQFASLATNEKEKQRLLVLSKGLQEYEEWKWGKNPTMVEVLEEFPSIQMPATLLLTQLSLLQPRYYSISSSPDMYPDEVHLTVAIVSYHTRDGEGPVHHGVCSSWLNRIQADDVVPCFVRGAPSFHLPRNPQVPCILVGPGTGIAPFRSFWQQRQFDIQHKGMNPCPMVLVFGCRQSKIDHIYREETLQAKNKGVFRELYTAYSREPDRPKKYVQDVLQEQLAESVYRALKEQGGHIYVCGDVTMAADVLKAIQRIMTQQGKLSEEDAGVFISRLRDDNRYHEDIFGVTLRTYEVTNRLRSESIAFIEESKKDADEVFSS

Nitric oxide synthase 1 [4] = molecular target: T1, Nitric oxide synthase 1 (Homo sapiens, UniProt P29475); experiment: Inhibition of human nNOS by hemoglobin capture assay
T1 sequence (P29475 whole entry): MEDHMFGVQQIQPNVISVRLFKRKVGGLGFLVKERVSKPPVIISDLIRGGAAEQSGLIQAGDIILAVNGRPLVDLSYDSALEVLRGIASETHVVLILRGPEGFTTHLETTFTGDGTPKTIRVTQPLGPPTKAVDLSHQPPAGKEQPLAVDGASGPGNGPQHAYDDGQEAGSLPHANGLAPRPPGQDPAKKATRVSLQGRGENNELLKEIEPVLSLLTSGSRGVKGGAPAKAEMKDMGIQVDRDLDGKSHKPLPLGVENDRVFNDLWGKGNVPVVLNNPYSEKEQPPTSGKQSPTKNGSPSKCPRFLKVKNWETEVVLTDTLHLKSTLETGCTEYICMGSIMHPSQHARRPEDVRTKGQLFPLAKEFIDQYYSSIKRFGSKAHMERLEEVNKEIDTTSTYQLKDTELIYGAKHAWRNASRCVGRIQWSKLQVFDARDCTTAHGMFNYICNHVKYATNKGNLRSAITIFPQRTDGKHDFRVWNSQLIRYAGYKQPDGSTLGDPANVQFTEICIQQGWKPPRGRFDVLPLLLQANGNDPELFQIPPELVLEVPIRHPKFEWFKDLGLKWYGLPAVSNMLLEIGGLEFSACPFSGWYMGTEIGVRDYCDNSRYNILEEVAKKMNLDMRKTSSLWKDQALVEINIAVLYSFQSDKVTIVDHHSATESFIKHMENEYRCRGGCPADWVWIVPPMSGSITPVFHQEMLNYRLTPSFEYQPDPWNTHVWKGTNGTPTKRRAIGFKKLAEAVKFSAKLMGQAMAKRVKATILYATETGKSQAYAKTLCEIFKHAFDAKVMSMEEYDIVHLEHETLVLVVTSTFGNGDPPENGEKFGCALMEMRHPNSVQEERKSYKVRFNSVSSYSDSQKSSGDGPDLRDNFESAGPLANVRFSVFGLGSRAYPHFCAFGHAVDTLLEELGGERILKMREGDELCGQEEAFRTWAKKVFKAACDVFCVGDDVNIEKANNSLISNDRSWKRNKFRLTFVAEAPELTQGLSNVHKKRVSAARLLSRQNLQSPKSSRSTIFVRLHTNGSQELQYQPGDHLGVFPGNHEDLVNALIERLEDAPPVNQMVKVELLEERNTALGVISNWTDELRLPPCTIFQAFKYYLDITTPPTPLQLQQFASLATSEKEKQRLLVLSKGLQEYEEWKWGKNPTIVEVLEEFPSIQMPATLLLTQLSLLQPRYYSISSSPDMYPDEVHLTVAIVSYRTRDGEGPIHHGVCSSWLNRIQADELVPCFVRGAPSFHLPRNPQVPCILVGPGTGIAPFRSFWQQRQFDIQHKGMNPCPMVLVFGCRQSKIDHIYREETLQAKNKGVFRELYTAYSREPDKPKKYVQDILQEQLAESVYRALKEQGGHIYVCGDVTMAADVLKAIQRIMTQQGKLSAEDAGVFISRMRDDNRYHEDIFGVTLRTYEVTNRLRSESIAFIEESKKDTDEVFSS

Rattus norvegicus = organism: Rattus norvegicus; experiment: Selectivity ratio of IC50 for wild type rat nNOS to IC50 for rat nNOS L337H mutant by hemoglobin capture assay
Nitric oxide synthase 1 [5] = molecular target: T1, Nitric oxide synthase 1; experiment: Inhibition of human nNOS by radioactivity assay

Nitric oxide synthase 1 (Rattus norvegicus, UniProt P29476, L337H), sequence (P29476 whole entry L337H): as the sequence (P29476 whole entry) above, with L337H counted along it

Cc1cc(C)nc(N)c1
Ratio IC50 [1]: 1 | IC50 (Nitric oxide synthase 1 [2]): 100 nM | IC50 (Nitric oxide synthase 1 [3]): 100 nM | IC50 (Nitric oxide synthase 1 [4]): 100 nM | Ratio IC50 (Rattus norvegicus): 1.1

Cc1cc(N)nc(CC2CNCC2OCCNCCc2cccc(F)c2)c1 (racemic)
IC50 (Nitric oxide synthase 1 [5]): 700 nM | IC50 (Nitric oxide synthase 1 [4]): 600 nM

NCCNC1CNCC1Cc1cccc(N)n1 (racemic)
IC50 (Nitric oxide synthase 1 [4]): 15300 nM

Cc1cc(N)nc(CC2CNCC2NCCN)c1 (racemic)
Ratio IC50 [1]: 3.1 | IC50 (Nitric oxide synthase 1 [2]): 3400 nM | IC50 (Nitric oxide synthase 1 [3]): 1300 nM | IC50 (Nitric oxide synthase 1 [4]): 4000 nM | Ratio IC50 (Rattus norvegicus): 2.7

Cc1cc(N)nc(CC2CNCC2NCCOCCc2cccc(F)c2)c1 (racemic)
Ratio IC50 [1]: 2.4 | IC50 (Nitric oxide synthase 1 [2]): 5500 nM | IC50 (Nitric oxide synthase 1 [3]): 2900 nM | IC50 (Nitric oxide synthase 1 [4]): 6600 nM | Ratio IC50 (Rattus norvegicus): 1.9

Cc1cc(N)nc(CC2CNCC2NC(=O)CNCCc2cccc(F)c2)c1 (racemic)
Ratio IC50 [1]: 4.3 | IC50 (Nitric oxide synthase 1 [2]): 4000 nM | IC50 (Nitric oxide synthase 1 [3]): 700 nM | IC50 (Nitric oxide synthase 1 [4]): 3000 nM | Ratio IC50 (Rattus norvegicus): 5.7

Cc1cc(N)nc(CC2CNCC2NCCNCCc2ccc(Cl)cc2)c1 (racemic)
Ratio IC50 [1]: 3.8 | IC50 (Nitric oxide synthase 1 [2]): 5000 nM | IC50 (Nitric oxide synthase 1 [3]): 1100 nM | IC50 (Nitric oxide synthase 1 [4]): 4200 nM | Ratio IC50 (Rattus norvegicus): 4.6
